Laboratory results published in PubChem BioAssay (NCI).
Values joined by “and” are separate entries in the source; they are usually repeats but may differ in a detail not shown here. Equal entries are not always repeated.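 Step 1: Grow cells in 96-well plates. Step 2: Expose to compound for 48 hours at 5 concentrations. Step 3: Interpolate endpoints linearly; if unreached, use highest concentration. GI50 is the concentration that inhibits growth by half. At the TGI there is no net growth.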

Columns and labels:
Experiment in all cases: inhibition of tumour cell growth, NCI panel, 48 h
ACHN renal = test system: ACHN renal
EKVX NSCLC = test system: EKVX NSCLC
HT29 colon = test system: HT29 colon
NCI-H23 lung = test system: NCI-H23 lung
NCI-H522 lung = test system: NCI-H522 lung
OVCAR-3 ovarian = test system: OVCAR-3 ovarian
RPMI-8226 leukemia = test system: RPMI-8226 leukemia
SK-MEL-28 melanoma = test system: SK-MEL-28 melanoma
CAKI-1 renal = test system: CAKI-1 renal
PC-3 prostate = test system: PC-3 prostate
HOP-92 NSCLC = test system: HOP-92 NSCLC

Row | Structure (SMILES) | TGI (ACHN renal) [µM] | TGI (EKVX NSCLC) [µM] | TGI (HT29 colon) [µM] | TGI (NCI-H23 lung) [µM] | TGI (NCI-H522 lung) [µM] | TGI (OVCAR-3 ovarian) [µM] | TGI (RPMI-8226 leukemia) [µM] | TGI (SK-MEL-28 melanoma) [µM] | TGI (CAKI-1 renal) [µM] | TGI (PC-3 prostate) [µM] | TGI (HOP-92 NSCLC) | GI50 (EKVX NSCLC) | GI50 (HT29 colon) | GI50 (NCI-H23 lung) | GI50 (PC-3 prostate) [µM] | GI50 (SK-MEL-28 melanoma) [µM] | GI50 (CAKI-1 renal) [µM] | GI50 (NCI-H522 lung) [µM] | GI50 (RPMI-8226 leukemia) [µM]
1 | CC12CCC(=O)N1c1ccc([N+](=O)[O-])cc1N2 (stereo not drawn) | > 100 | > 100 | > 100 | > 100 | > 100 | > 100 | > 100 | > 100 |  |  |  |  |  |  |  |  |  |  | 
2 | CCCCC1(C)C=C/C(=C2/C(=O)O/C(=C\C(=O)O)C2=O)O1 (stereo not drawn) | > 100 | > 100 | > 100 | > 100 |  | > 100 | > 100 | > 100 |  |  |  |  |  |  |  |  |  |  | 
3 | COc1c(=O)cc2cc[nH]c3ccn(C)c1c23 | > 100 | > 100 |  | > 100 |  | > 100 | > 100 | > 100 | > 100 | > 100 |  |  |  |  |  |  |  |  | 
4 | Nc1c([N+](=O)[O-])nc(Cl)c2nncn12 | > 100 | > 100 | > 100 | > 100 | > 100 | > 100 | > 69.7 | > 100 | > 100 |  | > 100 µM |  |  |  |  |  |  |  | 
5 | CC1(c2ccccc2Cl)C(C#N)C(=O)NC(=O)C1C#N (stereo not drawn) | > 100 | > 100 | > 100 | > 100 | 54 | 46.7 | 59.6 | > 100 | > 100 |  | 59.8 µM |  |  |  |  |  |  |  | 
6 | CCOC(=O)C1(F)S(=O)(=O)OCCOS1(=O)=O | > 100 | > 100 | > 100 | > 100 | > 100 | > 100 | > 100 | > 100 | > 100 | > 100 |  |  |  |  |  |  |  |  | 
7 | [O-]c1c2cc(-[n+]3c(-c4ccccc4)cc(-c4ccccc4)cc3-c3ccccc3)cc1COCCOCCOCCOCCOC2 | > 100 | > 100 | > 100 | > 100 | > 100 |  |  | 46.7 | > 100 |  | 73.9 µM |  |  |  |  |  |  |  | 
8 | O=C(c1nc2ccccc2[nH]c1=O)C(O)c1ccccc1 (stereo not drawn) | > 100 | > 100 | > 100 | > 100 | > 100 | > 100 | > 100 | > 100 | > 100 |  | > 100 µM |  |  |  |  |  |  |  | 
9 | CC(=O)OCCOCNC(=S)N/N=C/c1cc(Br)cs1 | > 100 | > 100 | > 100 | > 100 | > 100 | > 100 | > 100 | > 100 |  |  |  |  |  |  |  |  |  |  | 
10 | CC1(C)CC(=O)C(/C(=N/NC(=S)NN)C(=O)Nc2nc3ccc([N+](=O)[O-])cc3s2)C(=O)C1 | > 100 | > 100 | > 100 | > 100 | > 100 | > 100 |  | > 100 | > 100 |  | > 100 µM |  |  |  |  |  |  |  | 
11 | COc1ccc(CCC2c3cc(OC)c(OC)cc3CCN2C)cc1OC (stereo not drawn) | > 100 | > 100 | > 100 | > 100 | > 100 | > 100 | > 100 | > 100 | > 100 |  | > 100 µM |  |  |  |  |  |  |  | 
12 | O=C(CCC1C(=O)NC(=S)NC1=O)c1ccc2ccccc2c1 | > 100 | > 100 | > 100 | > 100 | 31.1 | > 100 |  | > 100 | > 100 |  | > 100 µM |  |  |  |  |  |  |  | 
13 | NC1CC(=O)c2c1sc(Cl)c2Cl (stereo not drawn) | > 100 | > 100 | > 100 |  |  | > 100 | > 100 | > 100 | > 100 | > 100 |  |  |  |  |  |  |  |  | 
14 | CCOC(=O)NNC(=O)NCc1cccc(CNC(=O)NNC(=O)OCC)c1 |  | > 100 | > 100 | > 100 | > 100 | > 100 | > 100 | > 100 | > 100 | > 100 |  |  |  |  |  |  |  |  | 
15 | C/C=C/C#CC#C/C=C/C=C/C(O)CCO (stereo not drawn) | > 23.1 | > 23.1 | > 23.1 | > 23.1 | > 23.1 | > 23.1 | > 23.1 | > 23.1 | > 23.1 |  | > 23.1 µM |  |  |  |  |  |  |  | 
16 | COC(=O)C(CCSC)NC(=O)CNC(=O)CSc1nnc(COc2ccc(Cl)cc2)n1-c1ccccc1 (stereo not drawn) | 30.7 |  | 31.5 | 30.2 |  |  | 59.7 | 33.3 |  | 30.2 | 32 µM |  |  |  |  |  |  |  | 
17 | O=[N+]([O-])c1ccc(OC2CC3C4C=CC3C2C4)c([N+](=O)[O-])c1 (stereo not drawn) | > 100 | > 100 | > 100 | > 100 | > 100 | > 100 |  | > 100 | > 100 | > 100 | > 100 µM and 29.9 µM | 56.5 µM and 22 µM | > 100 µM and 30 µM | > 100 µM and 26.8 µM | > 100 | > 100 |  |  | 
18 | C=C1CCC2[C@@H](CCC3[C@]2(C)CCC[C@]3(C)C(=O)OC)C1CC=O (stereo partly drawn) | 30 | 36 | 30.8 | 35.4 | 31.8 | 27.7 | 33.4 | 30.7 | 30.1 |  | 27.8 µM |  |  |  |  |  | 16.4 | 16.3 | 8.28
19 | CC(C)(C)C1=CC(C)(n2[nH]c(=O)n(-c3ccccc3)c2=O)C=C(C(C)(C)C)C1=O | > 100 |  | > 100 | > 100 | > 100 |  | > 100 | > 100 | > 100 | > 100 | > 100 µM |  |  |  |  |  |  |  | 
20 | N#Cc1nc(-c2ccco2)oc1N | > 10 | > 10 | > 10 | > 10 | > 10 |  | > 10 | > 10 | > 10 | > 10 | > 10 µM |  |  |  |  |  |  |  | 
21 | COC(=O)c1cc2c(c3c1CC(Cc1ccccc1)C3=O)CCC2 (stereo not drawn) | > 100 | > 100 | > 100 | > 100 | > 100 | > 100 | > 100 | > 100 |  | > 100 | 78 µM |  |  |  |  |  |  |  | 
22 | O=[N+]([O-])/C(C(Cl)=C(Cl)Cl)=C(/Cl)SCc1ccccc1 | 9.06 | 40.1 | 27.9 | 23 | 7.8 | 12.1 |  | 20.8 | 12.5 | 31.4 | 9.01 µM |  |  |  |  |  |  |  | 
